Patent US20260294874A1, “COMPOSITIONS COMPRISING MODULATORS OF RIBONUCLEOPROTEIN GRANULE FORMATION AND DISSOLUTION AND METHODS OF USE THEREOF” (University of Virginia Patent Foundation, priority 2023, published 2026)
Entries after “also recorded” stand apart in the source; their conditions may differ.

Test system: stress granules (G3BP1 foci) in HeLa cells
Assay: Immunofluorescence phenotypic screen for stress granules (α-G3BP1) in stressed HeLa cells
Type: cell-based
Conditions: 2 h; for effect on SGs (in words): 25 μM; for inhibition at 25 µM: read-out: reduction/inhibition of SGs/cell
Method: SuTEx compound treatments. Prior to treatments, cells were washed twice with warm phosphate-buffered saline (PBS) and exchanged with serum-free DMEM (supplemented with 1% L-glutamine) for at least 30 minutes at 37° C. with 5% CO2. Compounds were then added as 1000×DMSO stocks (10 μL for 10 cm dishes and 3 μL for 6-well dishes), plates were mixed gently, and cells were incubated for two hours. All compounds were thoroughly vortexed and sonicated for five minutes prior to addition to ensure complete solvation. For microscopy experiments, cultures were seeded at 150,000 cells in 3 mL of DMEM in 6-well THERMO SCIENTIFIC™ BIOLITE™ brand microwell plates (Catalog No. 12556004; Thermo Fisher Scientific Inc., Waltham, Massachusetts. United States of America). For collection, media was aspirated, and cells were washed once with cold PBS before scraping from plates. Cells were centrifuged at 500×g at 4° C. for 5 minutes and supernatant was removed. Cell pellets were resuspended in cold PBS (1 mL) and centrifuged at 1,400×g at 4° C. for 3 minutes. Supernatant was again removed, and pellets were then snap-frozen in liquid nitrogen and stored at −80° C. until needed.
Immunofluorescence. Immunofluorescence (IF) of HEK293T cells was performed as previously described in Ciancone et al., 2022. HeLa cells were seeded at 9.0×10^4 in a 24-well plate with 12-mm glass coverslips. The next day, the cells were treated with 25 μM SuTEx probe for 2 hours in DMEM medium without FBS. The cells were then treated with 75 μM NaAsO2 for 30 minutes and fixed with 3% paraformaldehyde in PBS for 15 minutes at room temperature (RT) and washed with PBS twice. The fixed cells were permeabilized with PBST (0.1% Triton X-100) for 15 minutes at room temperature and blocked with 5% goat serum in PBST for 30 minutes at RT. The cells were incubated with anti-G3BP1 antibody H-10 (Catalog No. sc-365338 at 1:200 dilution; Santa Cruz Biotechnology, Inc., Dallas, Texas, United States of America) for 2 hours at RT and washed with PBST (0.1% Tween-20) for 5 minutes three times. Next, cells were incubated with goat anti-mouse Alexa 594 antibody (Catalog No. 115-585-003 at 1:800 dilution; Jackson ImmunoResearch, West Grove, Pennsylvania, United States of America) for 30 minutes at RT. The cells were washed twice with PBST, stained with Hoechst 33342 (Catalog No. H3570 at […]; Thermo Fischer Scientific) in PBST for 5 minutes, and washed with PBS twice for 5 minutes. The coverslips were mounted in PROLONG™ Gold AntiFade Mountant (Catalog No. P36930, Thermo Fisher Scientific) and imaged using NIS Elements AR software and a Nikon Eclipse Ti microscope equipped with a ×100 objective and CMOS camera. […] A CellProfiler pipeline was developed to quantify the number of stress granules under each condition. Briefly, cells were recognized as blue^+ (nuclei) red^+ (G3BP1) objects, and the red^+ granules that meet the shape and size threshold were identified and counted. Cells on the border of linages were excluded from the analysis for more accurate quantification.
We used immunofluorescence (IF) detection for phenotypic screening of SuTEx compound activity on stress-induced PB and SG levels in cells (FIG. 1B). PBs were induced through glucose deprivation of HEK293T cells and detected by immunofluorescence with anti-enhancer of mRNA-decapping protein 4 (EDC4) as previously described (Kedersha & Anderson, 2007; Ciancone et al., 2022) (~4 vs 2 PBs/cell in −glucose and +glucose conditions, respectively; FIG. 8). EDC4 is an established PB marker for mammalian cells and is important for PB formation (Kedersha & Anderson, 2007; Luo et al., 2018). SGs were induced in HeLa cells by [COMPOUND LEFT OUT] treatments and detected by fluorescent staining with anti-Ras GTPase-activating protein-binding protein 1 (G3BP1) antibody (75 μM [COMPOUND LEFT OUT], 30 min; FIG. 9). G3BP1 foci have been used in previous IF studies to identify SGs in cells (Kedersha & Anderson, 2007). […]

SMILES | effect on SGs (in words) | inhibition at 25 µM (Homo sapiens) [%] | fold induction at 25 µM (Homo sapiens, read-out: increase in SGs per cell)
CC(C)c1cc(C(C)C)c(S(=O)(=O)n2cc(-c3ccc(C(F)(F)F)cc3)nn2)c(C(C)C)c1 [AHL-003] | block both types of RNP granules; also recorded: inhibited | > 70 | –
COc1ccc(S(=O)(=O)n2cc(CS(C)(=O)=O)nn2)cc1 [AHL-030, 1-((4-Methoxyphenyl)sulfonyl)-4-((methylsulfonyl)methyl)-1H-1,2,3-triazole] | SG enhancer; also recorded: SG-enhancing; also recorded: enhance SGs; also recorded: increased SGs | – | ~2
COc1ccc(S(=O)(=O)n2cc(C3CCCCC3)nn2)cc1 [HHS-166, 4-Cyclohexyl-1-((4-methoxyphenyl)sulfonyl)-111-1,2,3-triazole] | moderate, but statistically significant inhibitory activity; also recorded: enriched activity; also recorded: inhibits SG assembly; also recorded: inhibited SGs | ~50 | –
